Data as given in US10945932B2, “Prebiotic oral care compositions containing carboxylic acids” (COLGATE-PALMOLIVE COMPANY, priority 2013, dated 2021).
Where two headings read alike, the source gives them in different places.

What was measured:
Veillonella parvula [1] = conditions: V parvula, BHI
Protocol: (§6) Late exponential growth phase liquid cultures were prepared by transferring the respective bacterium from blood agar plates to BHI and overnight incubation at 37° C. in an anaerobic atmosphere for A. viscosus, V. parvula, F. nucleatum, P. gingivalis, P. intermedia, T forsythia, A. naeslundii, and C. sputigena, and in a 5% CO2 environment for S. salivarius, S. sanguinis, S. mitis, A. actinomycetemcomitans, S. mutans, S. sobrinus and S. gordonii. Overnight cultures were transferred to BHI and adjusted to a concentration of 1×10^7 CFU/ml (colony forming units per ml) by measuring the optical density at 600 nm (OD600) (BioRad SmartSpec 3000). For each strain, 200 μl of the bacterial suspension was added to a 96-well plate containing 20 μl of the respective carboxylic acids. Final concentrations of the carboxylic acids were set to 5, 10, 20 and 25 μmol/ml. […] Plates were incubated as previously described.
(§7) For each combination of bacterium/carboxylic acid, and for each of their respective controls (i.e. the particular bacterium in the nutritionally rich medium with no carboxylic acid), the optical density was measured at 630 nm (OD630) at 0 h, 24 h and 48 h (Thermo Scientific Multiskan Ascent). Additionally, the OD630 for combinations of bacterium/carboxylic acid grown in a 5% CO2 environment were also measured every hour between 0 h and 9 h.
(§8) The experiment was carried out on three different days (thus providing 3 biological replicas) and on each day the experiment was carried out in quadruple (thus providing 4 technical replicas) for each combination of bacterium with carboxylic acid and for each control. For each day and for each combination, the average (mean) of the values obtained (as detailed above) for the four technical replicas was calculated to provide a single value for each combination on each day.

Fusobacterium nucleatum [2] = conditions: F nucleatum, BHI
[3] = test system: Aggregatibacter actinomycetemcomitans; assay: Metabolic activity, Biolog phenotype microarray; format: cell-based; conditions: A actinomycetemcomitans
Protocol: (§1) The extent of metabolic activity of the tested bacteria in the presence of the above-mentioned acids after 24 hours and 48 hours was investigated through a high throughput phenotype microarray system (PM) for microbial cells (Biolog Inc.). Each PM can contain up to 95 different biochemical compounds (e.g. organic acids) that may act as substrates for bacteria as well as one negative control, not containing the substrates. Microarray plates were used in which the different wells of each plate were pre-loaded (by the manufacturer, Biolog Inc.) with different organic acids to be tested. Each bacterial species was tested using a separate microarray plate. Thus, a single bacterial species was tested with a variety of organic acids on each particular plate. The microarrays are based on redox technology, using cell respiration as a universal reporter. […] The observation of this color change indicates which of the substrates improve the metabolic activity and health of the cells.
(§2) Each bacterial species was collected from blood agar plates (incubated for 48 hours anaerobically at 37° C.) and transferred to an IF-0 Base inoculation fluid (Biolog Inc.), which is a nutritionally poor medium. […] A 1:5 dilution of this suspension was prepared by mixing 3 mL of the 42% transmittance cell suspension with 15 mL of an inoculation fluid (which inoculation fluid was formed by mixing 11.6 mL sterile water, 62.5 mL IF-0 base inoculation fluid and 0.9 mL of the tetrazolium dye “Biolog Redox Dye mix D”), resulting in a final cell density which was equal to 85% transmittance using a BioRad SmartSpec 3000 Photometer. For each of the acids tested, the microarray plate (obtained from the supplier (Biolog Inc.) with acid already present in the relevant wells in powder form) was directly inoculated with 100 μL/well of this 85% transmittance cell suspension.
(§3) All plates were incubated in an anaerobic atmosphere at 37° C. Color changes were measured spectrophotometrically at 492 nm (Thermo Scientific Multiskan Ascent) at 24 hrs and 48 hrs using the same plate at both time points.
(§4) The controls were also carried out three times, as above.

Actinomyces naeslundii [4] = assay: Metabolic activity, Biolog phenotype microarray; format: cell-based; conditions: A naeslundii
Protocol: as §1, §2, §3, §4

Streptococcus mitis = assay: Metabolic activity, Biolog phenotype microarray; format: cell-based; conditions: S mitis
Protocol: as §1, §2, §3, §4

Streptococcus salivarius [5] = assay: Metabolic activity, Biolog phenotype microarray; format: cell-based; conditions: S salivarius
Protocol: as §1, §2, §3, §4

Capnocytophaga sputigena = assay: Metabolic activity, Biolog phenotype microarray; format: cell-based; conditions: C sputigena
Protocol: as §1, §2, §3, §4

Streptococcus gordonii = assay: Metabolic activity, Biolog phenotype microarray; format: cell-based; conditions: S gordonii
Protocol: as §1, §2, §3, §4

Streptococcus mutans = assay: Metabolic activity, Biolog phenotype microarray; format: cell-based; conditions: S mutans
Protocol: as §1, §2, §3, §4

Porphyromonas gingivalis = assay: Metabolic activity, Biolog phenotype microarray; format: cell-based; conditions: P gingivalis
Protocol: as §1, §2, §3, §4

Fusobacterium nucleatum [6] = assay: Metabolic activity, Biolog phenotype microarray; format: cell-based; conditions: F nucleatum
Protocol: as §1, §2, §3, §4

Prevotella intermedia = assay: Metabolic activity, Biolog phenotype microarray; format: cell-based; conditions: P intermedia
Protocol: as §1, §2, §3, §4

Streptococcus sanguinis = assay: Metabolic activity, Biolog phenotype microarray; format: cell-based; conditions: S sanguinis
Protocol: as §1, §2, §3, §4

Tannerella forsythia = assay: Metabolic activity, Biolog phenotype microarray; format: cell-based; conditions: T forsythia
Protocol: as §1, §2, §3, §4

Veillonella parvula [7] = assay: Metabolic activity, Biolog phenotype microarray; format: cell-based; conditions: V parvula
Protocol: as §1, §2, §3, §4

Actinomyces viscosus = assay: Metabolic activity, Biolog phenotype microarray; format: cell-based; conditions: A viscosus
Protocol: as §1, §2, §3, §4

Streptococcus sobrinus = assay: Metabolic activity, Biolog phenotype microarray; format: cell-based; conditions: S sobrinus
Protocol: as §1, §2, §3, §4

[8] = test system: Aggregatibacter actinomycetemcomitans; assay: Biofilm growth assay in BHI, crystal violet; format: cell-based; conditions: A actinomycetemcomitans
Protocol: (§5) Late exponential growth phase liquid cultures were prepared by transferring the respective bacterium from blood agar plates to BHI and overnight incubation at 37° C. in an anaerobic atmosphere for A. viscosus, V. parvula, F. nucleatum, P. gingivalis, P. intermedia, T. forsythia, A. naeslundii, and C. sputigena, and in a 5% CO2 environment for S. salivarius, S. sanguinis, S. mitis, A. actinomycetemcomitans, S. mutans, and S. gordonii. […] Additionally, for each bacterium tested, a background control, to correct for background staining, was added. This background control contained the bacterium tested and 0.03 weight % chlorhexidine, as an antiseptic. Plates were incubated as previously described. After 48 hrs the supernatant was removed from the wells of the plates. The wells were washed twice with 1×100 μL/PBS (phosphate buffered saline), fixed for 20 minutes with 96% vol. ethanol (96% vol. solution in water) and the biofilm retained at the bottom of the wells was stained with 1 weight % crystal violet (1 weight % solution in water). […] Quantification of the stained biofilm was performed by measuring the absorbance at 630 nm using a Multiskan Ascent microplate reader (Thermo Scientific).

[9] = test system: beneficial oral bacteria and pathogenic oral bacteria; assay: Biofilm growth, prebiotic effect over the whole panel; format: cell-based; conditions: 25 μmol/ml; 48 hours; threshold value of 1.6
Protocol: as §5

Streptococcus salivarius [10] = conditions: S salivarius, BHI
Protocol: as §6, §7, §8

Actinomyces naeslundii [11] = conditions: A naeslundii, BHI
Protocol: as §6, §7, §8

## N[C@@H](CC(=O)O)C(=O)O [L-aspartic acid]
Veillonella parvula [1]; 5 μmol/ml
  extent of growth, maximal OD630 over 48 hr divided by maximal OD of control (control = 1): 1.0851
Veillonella parvula [1]; 10 μmol/ml
  extent of growth, maximal OD630 over 48 hr divided by maximal OD of control (control = 1): 1.1168
Veillonella parvula [1]; 20 μmol/ml
  extent of growth, maximal OD630 over 48 hr divided by maximal OD of control (control = 1): 1.1378
Veillonella parvula [1]; 25 μmol/ml
  extent of growth, maximal OD630 over 48 hr divided by maximal OD of control (control = 1): 1.1498
Fusobacterium nucleatum [2]; 5 μmol/ml
  extent of growth, maximal OD630 over 48 hr divided by maximal OD of control (control = 1): 0.7922
Fusobacterium nucleatum [2]; 10 μmol/ml
  extent of growth, maximal OD630 over 48 hr divided by maximal OD of control (control = 1): 0.7973
Fusobacterium nucleatum [2]; 20 μmol/ml
  extent of growth, maximal OD630 over 48 hr divided by maximal OD of control (control = 1): 0.8395
Fusobacterium nucleatum [2]; 25 μmol/ml
  extent of growth, maximal OD630 over 48 hr divided by maximal OD of control (control = 1): 0.8720
[3]; 24 hrs
  metabolic activity, OD at 492 nm divided by OD of control (control = 1): 1.4358
[3]; 48 hrs
  metabolic activity, OD at 492 nm divided by OD of control (control = 1): 1.6253
Actinomyces naeslundii [4]; 24 hrs
  metabolic activity, OD at 492 nm divided by OD of control (control = 1): 0.8814
Actinomyces naeslundii [4]; 48 hrs
  metabolic activity, OD at 492 nm divided by OD of control (control = 1): 0.8283
Streptococcus mitis; 24 hrs
  metabolic activity, OD at 492 nm divided by OD of control (control = 1): 1.0323
Streptococcus mitis; 48 hrs
  metabolic activity, OD at 492 nm divided by OD of control (control = 1): 0.9065
Streptococcus salivarius [5]; 24 hrs
  metabolic activity, OD at 492 nm divided by OD of control (control = 1): 0.9496
Streptococcus salivarius [5]; 48 hrs
  metabolic activity, OD at 492 nm divided by OD of control (control = 1): 0.8503
Capnocytophaga sputigena; 24 hrs
  metabolic activity, OD at 492 nm divided by OD of control (control = 1): 0.7060
Capnocytophaga sputigena; 48 hrs
  metabolic activity, OD at 492 nm divided by OD of control (control = 1): 0.7655
Streptococcus gordonii; 24 hrs
  metabolic activity, OD at 492 nm divided by OD of control (control = 1): 0.8729
Streptococcus gordonii; 48 hrs
  metabolic activity, OD at 492 nm divided by OD of control (control = 1): 0.8488
Streptococcus mutans; 24 hrs
  metabolic activity, OD at 492 nm divided by OD of control (control = 1): 0.9715
Streptococcus mutans; 48 hrs
  metabolic activity, OD at 492 nm divided by OD of control (control = 1): 0.8709
Porphyromonas gingivalis; 24 hrs
  metabolic activity, OD at 492 nm divided by OD of control (control = 1): 0.8910
Porphyromonas gingivalis; 48 hrs
  metabolic activity, OD at 492 nm divided by OD of control (control = 1): 0.9017
Fusobacterium nucleatum [6]; 24 hrs
  metabolic activity, OD at 492 nm divided by OD of control (control = 1): 0.9201
Fusobacterium nucleatum [6]; 48 hrs
  metabolic activity, OD at 492 nm divided by OD of control (control = 1): 0.9448
Prevotella intermedia; 24 hrs
  metabolic activity, OD at 492 nm divided by OD of control (control = 1): 0.9390
Prevotella intermedia; 48 hrs
  metabolic activity, OD at 492 nm divided by OD of control (control = 1): 0.9154
Streptococcus sanguinis; 24 hrs
  metabolic activity, OD at 492 nm divided by OD of control (control = 1): 0.9451
Streptococcus sanguinis; 48 hrs
  metabolic activity, OD at 492 nm divided by OD of control (control = 1): 0.9195
Tannerella forsythia; 24 hrs
  metabolic activity, OD at 492 nm divided by OD of control (control = 1): 0.9565
Tannerella forsythia; 48 hrs
  metabolic activity, OD at 492 nm divided by OD of control (control = 1): 0.9575
Veillonella parvula [7]; 24 hrs
  metabolic activity, OD at 492 nm divided by OD of control (control = 1): 1.8448
Veillonella parvula [7]; 48 hrs
  metabolic activity, OD at 492 nm divided by OD of control (control = 1): 2.2760
Actinomyces viscosus; 24 hrs
  metabolic activity, OD at 492 nm divided by OD of control (control = 1): 0.9434
Actinomyces viscosus; 48 hrs
  metabolic activity, OD at 492 nm divided by OD of control (control = 1): 0.9275
Streptococcus sobrinus; 24 hrs
  metabolic activity, OD at 492 nm divided by OD of control (control = 1): 1.0053
Streptococcus sobrinus; 48 hrs
  metabolic activity, OD at 492 nm divided by OD of control (control = 1): 0.9338
[8]; 5 μmol/ml
  biofilm growth, OD at 630 nm (crystal violet) at 48 hrs divided by OD of control (control = 1): 0.6182
[8]; 10 μmol/ml
  biofilm growth, OD at 630 nm (crystal violet) at 48 hrs divided by OD of control (control = 1): 0.5044
[8]; 20 μmol/ml
  biofilm growth, OD at 630 nm (crystal violet) at 48 hrs divided by OD of control (control = 1): 0.4857
[8]; 25 μmol/ml
  biofilm growth, OD at 630 nm (crystal violet) at 48 hrs divided by OD of control (control = 1): 0.5553
[9]
  prebiotic effect (biofilm growth): exhibited prebiotic effects
Streptococcus salivarius [10]; 5 μmol/ml
  extent of growth, maximal OD630 over 48 hr divided by maximal OD of control (control = 1): 0.9808
Streptococcus salivarius [10]; 10 μmol/ml
  extent of growth, maximal OD630 over 48 hr divided by maximal OD of control (control = 1): 0.9975
Streptococcus salivarius [10]; 20 μmol/ml
  extent of growth, maximal OD630 over 48 hr divided by maximal OD of control (control = 1): 1.0719
Streptococcus salivarius [10]; 25 μmol/ml
  extent of growth, maximal OD630 over 48 hr divided by maximal OD of control (control = 1): 0.9943
Actinomyces naeslundii [11]; 5 μmol/ml
  extent of growth, maximal OD630 over 48 hr divided by maximal OD of control (control = 1): 0.8893
Actinomyces naeslundii [11]; 10 μmol/ml
  extent of growth, maximal OD630 over 48 hr divided by maximal OD of control (control = 1): 0.8774
Actinomyces naeslundii [11]; 20 μmol/ml
  extent of growth, maximal OD630 over 48 hr divided by maximal OD of control (control = 1): 0.9021
Actinomyces naeslundii [11]; 25 μmol/ml
  extent of growth, maximal OD630 over 48 hr divided by maximal OD of control (control = 1): 0.8435
